This note sets out measurements from patent publication US10413562B2, “Compositions and methods for the production of pyrimidine and pyridine compounds with BTK inhibitory activity” (Merck Patent GmbH, priority 2011, dated 2019).

By IC50 is commonly meant the concentration at which inhibition is half-maximal. A low value points to inhibition by little substance.

The test system of one assay is PBMC. Kind of assay: Time dependent PBMC IC50 assay. It is filed as cell-based. As for the experimental part:
Compounds described by embodiments of the present invention were assayed using a time dependent PMBC assay.

A further assay deals with NZB/W F1 mice. Kind of assay: Interferon-alpha accelerated systemic lupus erythematosus (SLE) mouse model. It is filed as in vivo. As to conditions: ADV-IFN-alpha accelerated SLE, oral daily 0.1, 0.3, 1 or 3 mg/kg from day 14. As for the experimental part:
1-(4-(((6-amino-5-(4-phenoxyphenyl)pyrimidin-4-yl)amino)methyl)piperidin-1-yl)prop-2-en-1-one, designated as “CPD. B”, was evaluated in an interferon-alpha accelerated SLE mouse model. NZB/W F1 mice received i.v. injection at day 0 and day 1 of 10^8 infectious units of adenovirus (ADV-IFN-α) to deliver a transient overexpression on interferon alpha. Oral dosing of the different group treatments was initiated on day 14 and continued daily at 24 hour intervals until the end of the study. Treatment groups consisted of 20% Kleptose HPB in Na-citrate buffer (vehicle) or 0.1, 0.3, 1, or 3 mg/kg of Cpd. […] As shown in Panel 1B Cpd. […] FIG. 2 presents data from another interferon-alpha accelerated SLE experiment in mice. NZB/W F1 mice received i.v. injections at day 0 and day 1 of 10^8 infectious units of adenovirus (ADV-IFN-α) to deliver a transient overexpression on interferon alpha. Oral dosing of the different group treatments (n=10) was initiated on day 14 and continued daily at 24 hour intervals until the end of the study. Treatment groups consisted of 20% Kleptose HPB in Na-citrate buffer (vehicle), 0.1, 0.3, 1, or 3 mg/kg of Cpd. B or Cell Cept®. […] Statiscal analysis was performed using Two way ANOVA with Bonferroni post test with all groups compared to vehicle treated group (*=p<0.05, **=p<0.01, ***=p<0.001).

Regarding `C=CC(=O)N1C2CCC1CC(CNc1ncnc(N)c1-c1ccc(Oc3ccccc3)cc1)C2` (centres unmarked) [Compound A48, 1-(3-(((6-amino-5-(4-phenoxyphenyl)pyrimidin-4-yl)amino)methyl)-8-azabicyclo[3.2.1]octan-8-yl)prop-2-en-1-one], the IC50 in the assay on PBMC was less than 1 µM. For the compound `C=CC(=O)N1CCC(CNc2ncnc(N)c2-c2ccc(Oc3ccccc3)cc2)CC1` [Cpd. B, 1-(4-(((6-amino-5-(4-phenoxyphenyl)pyrimidin-4-yl)amino)methyl)piperidin-1-yl)prop-2-en-1-one], the disease activity result in the assay with NZB/W F1 mice was “reduces the disease activity in a dose-dependent manner”.
